# Laboratory results published in ChEMBL document CHEMBL2157951, “Polysulfated xanthones: multipathway development of a new generation of dual anticoagulant/antiplatelet agents” (J Med Chem, 2011).
# pIC50: −log10 of the molar value. Activity calls are given as the source filed them. The calls are words filed in the database; no cut-off is given here.
# How the values were obtained:
# [1] = test system: Plasma; assay: Anticoagulant activity in human plasma assessed as effect on thrombin time by coagulometer analysis; type: functional, cell-free
# [2] = test system: Plasma; assay: Anticoagulant activity in human plasma assessed as effect on prothrombin time by coagulometer analysis; type: functional, cell-free
# [3] = test system: Plasma; assay: Anticoagulant activity in human plasma assessed as concentration required to double the activated partial thromboplastin time by coagulometer analysis; type: functional
# [4] = test system: Plasma; assay: Anticoagulant activity in human plasma assessed as effect on activated partial thromboplastin time by coagulometer analysis; type: functional, cell-free
# [5] = molecular target: Prothrombin (Homo sapiens) (UniProt P00734); assay: Inhibition of human thrombin assessed as chromozym TH substrate hydrolysis at 1 x 10^-4 to 1 x 10^-3 M by spectrophotometric analysis in presence of antithrombin-3
# [6] = test system: Plasma; assay: Reduction of prothrombin level in citreated human plasma by measuring prothrombin clotting time after mixing with factor 2 deficient plasma
# [7] = test system: Blood; assay: Anticoagulant activity in human whole blood assessed as acceleration/kinetics of fibrin buildup and cross-linking at 3.12 x 10^-4 M by thromboelastography analysis in presence of intrinsic activator (reference value: 77 degree); type: functional
# [8] = molecular target: Coagulation factor X/antithrombin III (Homo sapiens, UniProt P00742+P01008); assay: Inhibition of human factor 10a/antithrombin 3 assessed as CBS 31.39 substrate hydrolysis by spectrophotometric analysis; type: protein-complex assay
# [9] = test system: Plasma; assay: Anticoagulant activity in human plasma assessed as concentration required to double the thrombin time by coagulometer analysis; type: functional
# [10] = molecular target: Coagulation factor X/antithrombin III (Homo sapiens) (UniProt P01008+P00742); assay: Inhibition of human factor 10a/antithrombin 3 assessed as CBS 31.39 substrate hydrolysis at 1 x 10^-3 M by spectrophotometric analysis; type: protein-complex assay
# [11] = molecular target: Vitamin K-dependent protein C (Homo sapiens) (UniProt P04070); assay: Inhibition of activated protein C in citreated human plasma using CBS 42.46 as substrate at 2.50 x 10^-4 M by chromogenic assay
# [12] = test system: Plasma; assay: Anticoagulant activity in human plasma assessed as concentration required to double the prothrombin time by coagulometer analysis; type: functional
# [13] = molecular target: Vitamin K-dependent protein C (Homo sapiens) (UniProt P04070); assay: Inhibition of activated protein C in citreated human plasma using CBS 42.46 as substrate at 2 x 10^-3 M by chromogenic assay
# [14] = molecular target: T1, Coagulation factor X (Homo sapiens, UniProt P00742); assay: Inhibition of human factor 10a assessed as CBS 31.39 substrate hydrolysis by spectrophotometric analysis
# [15] = molecular target: Prothrombin (Homo sapiens) (UniProt P00734); assay: Inhibition of human thrombin assessed as chromozym TH substrate hydrolysis at 1.9 x 10^-9 by spectrophotometric analysis
# [16] = test system: Blood; assay: Anticoagulant activity in human whole blood assessed as time from beginning of clot formation until the amplitude of thromboelastogram reaches 20 mm at 3.12 x 10^-4 M by thromboelastography analysis in presence of intrinsic activator (reference value: 82 sec); type: functional
# [17] = test system: Blood; assay: Anticoagulant activity in human whole blood assessed as period of time from initiation of the test to the initial fibrin formation at 3.12 x 10^-4 M by thromboelastography analysis in presence of intrinsic activator (reference value: 188 sec); type: functional
# [18] = test system: Blood; assay: Anticoagulant activity in human whole blood assessed as amplitude of the clot at 10 mins at 3.12 x 10^-4 M by thromboelastography analysis in presence of intrinsic activator (reference value: 57 mm); type: functional
# [19] = molecular target: T1, Coagulation factor X; assay: Inhibition of human factor 10a assessed as CBS 31.39 substrate hydrolysis at 1 x 10^-3 M by spectrophotometric analysis
# [20] = test system: Mus musculus; assay: Hepatotoxicity in mouse assessed as GOT level in plasma at 300 umol/kg, ip after 120 mins (reference value: 108 U/L); type: toxicity, organism-based; conditions: in vivo, 2 h
# [21] = test system: Mus musculus; assay: Anticoagulant activity in ip dosed mouse assessed as increase of thrombin time; type: functional, organism-based
# [22] = Chemical stability of the compound in phosphate buffered saline at pH 7.4 assessed as compound remaining at 1 x 10^-5 M after 120 mins by HPLC analysis; type: physicochemical; conditions: read-out: Stability
# [23] = Chemical stability of the compound in aqueous solution at 1.00 x 10^-2, 1.00 x 10^-4 and 1.00 x 10^-6 M at 4 degC after 15 days by HPLC analysis; conditions: buffer, 360 h, 10 mM, 100 µM, 1 µM
# [24] = Chemical stability of the compound in HCl buffer at pH 1 assessed as compound remaining at 1 x 10^-5 M after 120 mins by HPLC analysis; type: physicochemical; conditions: read-out: Stability
# [25] = Chemical stability of the compound in aqueous solution at 1.00 x 10^-2, 1.00 x 10^-4 and 1.00 x 10^-6 M at -20 degC after 15 days by HPLC analysis; conditions: buffer, 360 h, 10 mM, 100 µM, 1 µM
# [26] = Chemical stability of the compound in sodium boric acid at pH 9.1 assessed as compound remaining at 1 x 10^-5 M after 120 mins by HPLC analysis; type: physicochemical; conditions: sodium boric acid buffer, read-out: Stability
# [27] = molecular target: T1, Coagulation factor X; assay: Non-competitive inhibition of human factor 10a using CBS 31.39 as substrate hydrolysis by Michaelis-Menten equation analysis
# [28] = test system: Mus musculus; assay: Anticoagulant activity in mouse assessed as increase of activated partial thromboplastin time at 300 umol/kg, po; type: functional, organism-based
# [29] = Chemical stability of the compound in potassium phosphate buffer at pH 6.7 assessed as compound remaining at 1 x 10^-5 M after 120 mins by HPLC analysis; type: physicochemical; conditions: read-out: Stability
# [30] = test system: Mus musculus; assay: Anticoagulant activity in ip dosed mouse assessed as increase of activated partial thromboplastin time; type: functional, organism-based
# [31] = test system: Mus musculus; assay: Anticoagulant activity in mouse assessed as increase of activated thrombin time at 300 umol/kg, po; type: functional, organism-based
# [32] = test system: Mus musculus; assay: Anticoagulant activity in mouse assessed as increase of activated partial thromboplastin time at 150 and 300 umol/kg, ip measured after 120 mins; type: functional, organism-based
# [33] = test system: Mus musculus; assay: Anticoagulant activity in mouse assessed as increase of activated prothrombin time at 300 umol/kg, po; type: functional, organism-based
# [34] = Chemical stability of the compound in sodium acetate buffer at pH 5 assessed as compound remaining at 1 x 10^-5 M after 120 mins by HPLC analysis; type: physicochemical; conditions: read-out: Stability
# [35] = test system: Mus musculus; assay: Anticoagulant activity in mouse assessed as increase of prothrombin time at 150 and 300 umol/kg, ip measured after 120 mins; type: functional, organism-based
# [36] = test system: Plasma; assay: Metabolic stability in human plasma after 3 hrs by HPLC analysis by HPLC analysis; type: ADME, cell-free
# [37] = Solubility of the compound in water; type: physicochemical; conditions: buffer
# [38] = test system: Mus musculus; assay: Anticoagulant activity in ip dosed mouse assessed as increase of prothrombin time; type: functional, organism-based
# [39] = Chemical stability of the compound in aqueous solution at 1.00 x 10^-2, 1.00 x 10^-4 and 1.00 x 10^-6 M at room temperature after 15 days by HPLC analysis; conditions: buffer, 360 h, 10 mM, 100 µM, 1 µM
# [40] = test system: Mus musculus; assay: Anticoagulant activity in mouse assessed as increase of thrombin time at 150 and 300 umol/kg, ip measured after 120 mins; type: functional, organism-based
# [41] = test system: Mus musculus; assay: Hepatotoxicity in mouse assessed as GPT level in plasma at 300 umol/kg, ip after 120 mins (reference value: 40 U/L); type: toxicity, organism-based; conditions: in vivo, 2 h
# [42] = test system: Plasma; assay: Anticoagulant activity in human plasma assessed as effect on thrombin time at 5 x 10^-3 M by coagulometer analysis; type: functional, cell-free
# [43] = test system: Plasma; assay: Anticoagulant activity in human plasma assessed as effect on activated partial thromboplastin time at 5 mM by coagulometer analysis relative to untreated control; type: functional
# [44] = test system: Plasma; assay: Anticoagulant activity in human plasma assessed as effect on prothrombin time at 5 mM by coagulometer analysis relative to untreated control; type: functional
# [45] = Stability in RPMI medium at 37 degC assessed as compound degradation incubated for 24 hrs; type: physicochemical
structure (smiles),measurement,setting,value
O=c1c2cc(O)c(O)cc2oc2cc(O)c([C@@H]3O[C@H](COS(=O)(=O)O)[C@@H](OS(=O)(=O)O)[C@H](OS(=O)(=O)O)[C@H]3OS(=O)(=O)O)c(O)c12,Activity,[1],Dose-dependent effect
same,Activity,[2],Dose-dependent effect
same,2aPTT,[3],0.39 mM
same,Activity,[4],Dose-dependent effect
O=c1c2ccc(O[C@@H]3O[C@H](COS(=O)(=O)O)[C@@H](OS(=O)(=O)O)[C@H](OS(=O)(=O)O)[C@H]3OS(=O)(=O)O)cc2oc2cc(O[C@@H]3O[C@H](COS(=O)(=O)O)[C@@H](OS(=O)(=O)O)[C@H](OS(=O)(=O)O)[C@H]3OS(=O)(=O)O)ccc12,inhibition,[5],inactive
same,Activity,[6],Active
same,Activity,[7],68 degree
same,pIC50,[8],3.72
same,Activity,[9],0.61 mM
same,inhibition,[10],88.8%
same,inhibition,[11],inactive
same,Activity,[1],Dose-dependent effect
same,2PT,[12],0.71 mM
same,Activity,[2],Dose-dependent effect
same,inhibition,[13],> 50%
same,pIC50,[14],3.13
same,inhibition,[15],37%
same,Time,[16],114 s
same,Time,[17],469 s
same,2aPTT,[3],0.06 mM
same,Activity,[4],Dose-dependent effect
same,Activity,[18],51 mm
same,inhibition,[19],66.3%
O=c1c2cc(OS(=O)(=O)O)c(OS(=O)(=O)O)cc2oc2cc(OS(=O)(=O)O)c([C@@H]3O[C@H](COS(=O)(=O)O)[C@@H](OS(=O)(=O)O)[C@H](OS(=O)(=O)O)[C@H]3OS(=O)(=O)O)c(O)c12 [MANGIFERIN HEPTASULFATE],Activity,[20],125 U/L
same,Activity,[21],Dose-dependent effect
same,"remaining at 2 h, 10 µM",[22],> 85%
same,Stability,[23],Stable
same,"remaining at 2 h, 10 µM",[24],> 85%
same,Stability,[25],Stable
same,"remaining at 2 h, 10 µM",[26],> 85%
same,inhibition,[27],Active
same,Activity,[28],inactive
same,inhibition,[5],inactive
same,"remaining at 2 h, 10 µM",[29],> 85%
same,Activity,[6],Active
same,Activity,[30],Dose-dependent effect
same,Activity,[7],73 degree
same,Activity,[31],inactive
same,Activity,[32],Active
same,Activity,[33],inactive
same,Activity,[9],1.96 mM
same,"remaining at 2 h, 10 µM",[34],> 85%
same,inhibition,[10],41%
same,Activity,[35],Active
same,Stability,[36],Stable
same,inhibition,[11],inactive
same,solubility,[37],soluble
same,Activity,[1],Dose-dependent effect
same,2PT,[12],1.6 mM
same,Activity,[2],Dose-dependent effect
same,inhibition,[13],> 50%
same,Activity,[38],Dose-dependent effect
same,Stability,[39],Stable
same,pIC50,[14],3.01
same,inhibition,[15],37%
same,Time,[16],86 s
same,Time,[17],247 s
same,2aPTT,[3],0.21 mM
same,Activity,[4],Dose-dependent effect
same,Activity,[40],Active
same,Activity,[18],50 mm
same,inhibition,[19],52.1%
same,Activity,[41],46 U/L
O=c1c2ccc(O[C@@H]3O[C@H](CO)[C@@H](O)[C@H](O)[C@H]3O)cc2oc2cc(O[C@@H]3O[C@H](CO)[C@@H](O)[C@H](O)[C@H]3O)ccc12,Activity,[42],inactive
same,Activity,[43],inactive
same,Activity,[44],inactive
O=S(=O)(O)Oc1ccc(/C=C/c2cc(O)cc(O)c2)cc1,Stability,[45]; 24 h,Stable
Oc1ccc(/C=C/c2cc(O)cc(O)c2)cc1 [RESVERATROL],degraded at 24 h,"[45]; RPMI medium, read-out: Drug degradation",50%
O=c1c2cc(O)c(O)cc2oc2cc(O)c([C@@H]3O[C@H](CO)[C@@H](O)[C@H](O)[C@H]3O)c(O)c12,Activity,[42],inactive
same,Activity,[43],inactive
same,Activity,[44],inactive
O=c1c2ccc(OS(=O)(=O)O)cc2oc2cc(OS(=O)(=O)O)ccc12,Activity,[42],inactive
same,2PT,[12],>5 mM
same,fold change (FC),[43],1.3
same,2aPTT,[3],>5 mM
same,fold change (FC),[44],1.1
